# Test results reported in patent US8575200B2, “Pyridin-2-yl derivatives as immunomodulating agents” (Actelion Pharmaceuticals Ltd, priority 2008, dated 2013).
# Marks after values point to notes of the source that are not given here.
# Columns and labels:
# [1] = target: recombinant human S1P1 receptor (Homo sapiens, UniProt P21453); experiment: GTPγS assay to determine EC50 values; format: biochemical; settings: 35S-GTPγS binding
# Procedure: GTPγS binding assays are performed in 96 well microtiter plates (Nunc, 442587) in a final volume of 200 μl, using membrane preparations of CHO cells expressing recombinant human S1P1 receptor. Assay conditions are 20 mM Hepes (Fluka, 54461), 100 mM NaCl (Fluka, 71378), 5 mM MgCl2 (Fluka, 63064), 0.1% BSA (Calbiochem, 126609), 1 μM GDP (Sigma, G-7127), 2.5% DMSO (Fluka, 41644), […] ^35S-GTPγS (Amersham Biosciences, SJ1320). The pH is 7.4. Test compounds are dissolved and diluted in 100% DMSO and pre-incubated at room temperature for 30 min in 150 μl of the above assay buffer, in the absence of ^35S-GTPγS. After addition of 50 μl of ^35S-GTPγS, the assay is incubated for 1 h at rt. The assay is terminated by transfer of the reaction mixture to a Multiscreen plate (Millipore, MAHFC1H60) using a cell harvester from Packard Biosciences, and the plates are washed with ice-cold 10 mM Na2HPO4/NaH2PO4 (70%/30%), dried, sealed at the bottom and, after addition of 25 μl MicroScint20 (Packard Biosciences, order #6013621), sealed on the top. Membrane-bound ^35S-GTPγS is measured with a TopCount from Packard Biosciences.
# EC50 is the concentration of agonist inducing 50% of the maximal specific ^35S-GTPγS binding. Specific binding is determined by subtracting non-specific binding from maximal binding. Maximal binding is the amount of cpm bound to the Multiscreen plate in the presence of 10 μM of S1P. Non-specific binding is the amount of binding in the absence of an agonist in the assay.
# [2] = test system: circulating lymphocytes; experiment: Assessment of in vivo efficacy: circulating lymphocytes after oral administration; set-up: species or system normotensive male Wistar rats; settings: compared to vehicle group
# Procedure: The efficacy of the compounds of Formula (I) is assessed by measuring the circulating lymphocytes after oral administration of 3 to 30 mg/kg of a compound of Formula (I) to normotensive male Wistar rats. The animals are housed in climate-controlled conditions with a 12 h-light/dark cycle, and have free access to normal rat chow and drinking water. Blood is collected before and 3, 6 and 24 h after drug administration. Full blood is subjected to hematology using Advia Hematology system (Bayer Diagnostics, Zürich, Switzerland).
# All data are presented as mean±SEM. Statistical analyses are performed by analysis of variance (ANOVA) using Statistica (StatSoft) and the Student-Newman-Keuls procedure for multiple comparisons. The null hypothesis is rejected when p<0.05.
# Lymphocyte counts 6 h after oral administration have been measured for 7 of the exemplified compounds (Table 2) and are in the range of −35% to −74% with an average of −64%.
# [3] = membrane preparations of CHO cells expressing recombinant human S1P1 receptor, agonistic activity
# [4] = 6 h after oral administration of 10 mg/kg to male Wistar rats
# Sequence of recombinant human S1P1 receptor (P21453 whole entry): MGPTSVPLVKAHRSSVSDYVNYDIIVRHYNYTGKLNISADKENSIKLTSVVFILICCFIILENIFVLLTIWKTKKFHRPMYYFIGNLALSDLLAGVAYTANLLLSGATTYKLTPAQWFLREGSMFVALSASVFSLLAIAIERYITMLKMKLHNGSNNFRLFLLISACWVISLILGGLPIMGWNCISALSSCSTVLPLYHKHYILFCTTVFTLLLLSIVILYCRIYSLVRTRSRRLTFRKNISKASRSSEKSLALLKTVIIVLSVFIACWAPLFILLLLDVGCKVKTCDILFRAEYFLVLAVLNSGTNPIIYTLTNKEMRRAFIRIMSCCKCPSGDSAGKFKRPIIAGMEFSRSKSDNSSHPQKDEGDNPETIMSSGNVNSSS
"EC50 [1, 3] [nM]",SMILES,also measured
5.1,"CCc1cc(-c2noc(-c3cc(C)c(CC(C)C)cn3)n2)cc(C)c1OCCNCCC(=O)O [Example 50, 3-(2-{2-Ethyl-4-[5-(5-isobutyl-4-methyl-pyridin-2-yl)-[1,2,4]oxadiazol-3-yl]-6-methyl-phenoxy}-ethylamino)-propionic acid]",
,CCc1cc(-c2nnc(-c3cc(C)c(CC(C)C)cn3)o2)cc(C)c1OC[C@@H](O)CN [Example 43],EC50 ([1]; membranes of CHO cells expressing recombinant human S1P1 receptor): > 10000 nM
3.1,"CCc1cc(-c2noc(-c3cc(OC)cc(C(CC)CC)n3)n2)cc(C)c1OC[C@@H](O)CNC(=O)CO [Example 69, N—[(S)-3-(2-ethyl-4-{5-[6-(1-ethyl-propyl)-4-methoxy-pyridin-2-yl]-[1,2,4]oxadiazol-3-yl}-6-methyl-phenoxy)-2-hydroxy-propyl]-2-hydroxy-acetamide]",
9.4,"CCC(CC)c1cc(OC)cc(-c2nc(-c3cc(C)c(OC[C@@H](O)CO)c(Cl)c3)no2)n1 [Example 65, (S)-3-(2-chloro-4-{5-[6-(1-ethyl-propyl)-4-methoxy-pyridin-2-yl]-[1,2,4]oxadiazol-3-yl}-6-methyl-phenoxy)-propane-1,2-diol]",
11.2,"CCc1cc(-c2noc(-c3cc(C)c(CC(C)C)cn3)n2)cc(C)c1OC[C@@H](O)CNCCO [Example 58, 1-{2-Ethyl-4-[5-(5-isobutyl-4-methyl-pyridin-2-yl)-[1,2,4]oxadiazol-3-yl]-6-methyl-phenoxy}-3-((2S)-2-hydroxy-ethylamino)-propan-2-ol]",
9,"CCc1cc(-c2nc(-c3cc(C)c(CC(C)C)cn3)no2)cc(C)c1OC[C@@H](O)CNC(=O)CO [Example 74, N-((2S)-3-{2-Ethyl-4-[3-(5-isobutyl-4-methyl-pyridin-2-yl)-[1,2,4]oxadiazol-5-yl]-6-methyl-phenoxy}-2-hydroxy-propyl)-2-hydroxy-acetamide]",
9.1,"CCc1cc(-c2noc(-c3cc(C)c(CC(C)C)cn3)n2)cc(C)c1OC[C@@H](O)CO [Example 34, (S)-3-{2-ethyl-4-[5-(5-isobutyl-4-methyl-pyridin-2-yl)-[1,2,4]oxadiazol-3-yl]-6-methyl-phenoxy}-propane-1,2-diol]","Lymphocyte counts [2, 4]: −70%"
2.7,COc1cc(CC(C)C)nc(-c2nc(-c3cc(C)c(OC[C@@H](O)CNC(=O)CO)c(C)c3)no2)c1 [Example 10],
8.8,"CCC(CC)c1cc(OC)cc(-c2nc(-c3cc(C)c(OC[C@@H](O)CNC(=O)CO)c(OC)c3)no2)n1 [Example 72, N—[(S)-3-(4-{5-[6-(1-ethyl-propyl)-4-methoxy-pyridin-2-yl]-[1,2,4]oxadiazol-3-yl}-2-methoxy-6-methyl-phenoxy)-2-hydroxy-propyl]-2-hydroxy-acetamide]",
3.3,"CCc1cc(-c2noc(-c3cc(C)c(CC(C)C)cn3)n2)cc(C)c1CCC(=O)NCCC(=O)O [Example 40, 3-(3-{2-Ethyl-4-[5-(5-isobutyl-4-methyl-pyridin-2-yl)-[1,2,4]oxadiazol-3-yl]-6-methyl-phenyl}-propionylamino)-propionic acid]","Lymphocyte counts [2, 4]: −35%"
,"CCc1cc(-c2noc(-c3cc(C)c(CC(C)C)cn3)n2)cc(C)c1OC[C@@H](O)CNC(=O)CO [Example 36, N—((S)-3-{2-ethyl-4-[5-(5-isobutyl-4-methyl-pyridin-2-yl)-[1,2,4]oxadiazol-3-yl]-6-methyl-phenoxy}-2-hydroxy-propyl)-2-hydroxy-acetamide]","Lymphocyte counts [2, 4]: −74%"
2.3,"CCc1cc(-c2noc(-c3cc(C)c(CC(C)C)cn3)n2)cc(C)c1OC[C@@H](O)CNCCC(=O)O [Example 61, 3-((2S)-3-{2-Ethyl-4-[5-(5-isobutyl-4-methyl-pyridin-2-yl)-[1,2,4]oxadiazol-3-yl]-6-methyl-phenoxy}-2-hydroxy-propylamino)-propionic acid]",
0.8,"CCC(CC)c1cc(OC)cc(-c2nc(-c3cc(C)c(OC[C@@H](O)CNC(=O)CO)c(Cl)c3)no2)n1 [Example 71, N—[(S)-3-(2-chloro-4-{5-[6-(1-ethyl-propyl)-4-methoxy-pyridin-2-yl]-[1,2,4]oxadiazol-3-yl}-6-methyl-phenoxy)-2-hydroxy-propyl]-2-hydroxy-acetamide]",
2.8,"CCC(CC)c1cc(OC)cc(-c2nc(-c3cc(C)c(OC[C@@H](O)CNC(=O)CO)c(C)c3)no2)n1 [Example 70, N—[(S)-3-(4-{5-[6-(1-ethyl-propyl)-4-methoxy-pyridin-2-yl]-[1,2,4]oxadiazol-3-yl}-2,6-dimethyl-phenoxy)-2-hydroxy-propyl]-2-hydroxy-acetamide]",
,"CCc1cc(-c2noc(-c3cc(C)cc(CC(C)C)n3)n2)cc(C)c1OC[C@@H](O)CNC(=O)CO [Example 1, N—((S)-3-{2-Ethyl-4-[5-(6-isobutyl-4-methyl-pyridin-2-yl)-[1,2,4]oxadiazol-3-yl]-6-methyl-phenoxy}-2-hydroxy-propyl)-2-hydroxy-acetamide]","Lymphocyte counts [2, 4]: −74%"
7.2,"CCc1cc(-c2noc(-c3cc(C)c(CC(C)C)cn3)n2)cc(C)c1OC[C@H](O)CO [Example 33, (R)-3-{2-ethyl-4-[5-(5-isobutyl-4-methyl-pyridin-2-yl)-[1,2,4]oxadiazol-3-yl]-6-methyl-phenoxy}-propane-1,2-diol]",
,"CCc1cc(-c2noc(-c3cc(CC(C)C)cc(C)n3)n2)cc(C)c1OC[C@@H](O)CNC(=O)CO [Example 5, N—((S)-3-{2-Ethyl-4-[5-(4-isobutyl-6-methyl-pyridin-2-yl)-[1,2,4]oxadiazol-3-yl]-6-methyl-phenoxy}-2-hydroxy-propyl)-2-hydroxy-acetamide]","Lymphocyte counts [2, 4]: −67%"
4.7,"CCc1cc(-c2noc(-c3cc(C)c(CC(C)C)cn3)n2)cc(C)c1OC(CO)CO [Example 55, 2-{2-Ethyl-4-[5-(5-isobutyl-4-methyl-pyridin-2-yl)-[1,2,4]oxadiazol-3-yl]-6-methyl-phenoxy}-propane-1,3-diol]","Lymphocyte counts ([2]; 3 h after administration, oral 10 mg/kg, male Wistar rats): −65%*"
2.2,"CCc1cc(-c2noc(-c3cc(C)cc(C(CC)CC)n3)n2)cc(C)c1OC[C@@H](O)CO [Example 62, (S)-3-(2-Ethyl-4-{5-[6-(1-ethyl-propyl)-4-methyl-pyridin-2-yl]-[1,2,4]oxadiazol-3-yl}-6-methyl-phenoxy)-propane-1,2-diol]",
2.3,"CCc1cc(-c2noc(-c3cc(OC)cc(CC(C)C)n3)n2)cc(C)c1OC[C@@H](O)CNC(=O)CO [Example 17, N—((S)-3-{2-ethyl-4-[5-(6-isobutyl-4-methoxy-pyridin-2-yl)-[1,2,4]oxadiazol-3-yl]-6-methyl-phenoxy}-2-hydroxy-propyl)-2-hydroxy-acetamide]","Lymphocyte counts [2, 4]: −66%"
8.8,"CCc1cc(-c2noc(-c3cc(C)c(CC(C)C)cn3)n2)cc(C)c1OCCNC(=O)CO [Example 51, N-(2-{2-Ethyl-4-[5-(5-isobutyl-4-methyl-pyridin-2-yl)-[1,2,4]oxadiazol-3-yl]-6-methyl-phenoxy}-ethyl)-2-hydroxy-acetamide]",
11.9,"CCc1cc(-c2noc(-c3cc(C)c(CC(C)C)cn3)n2)cc(C)c1OC[C@@H](O)CNS(=O)(=O)CC [Example 59, Ethanesulfonic acid ((2S)-3-{2-ethyl-4-[5-(5-isobutyl-4-methyl-pyridin-2-yl)-[1,2,4]oxadiazol-3-yl]-6-methyl-phenoxy}-2-hydroxy-propyl)-amide]",
